Assay type in all cases: cell-based
One experiment relates to H1437 cells. Nature of the experiment: Cell viability assay (CCK8). Particulars: three days treatment. Here is the method:
(§1) This experiment involves treating cells with each of the compounds prepared in Examples 1 to 11, and then observing changes in cell cytotoxicity and cell count. The IC50 values, derived from the changes in cell count, can be used to assess the cancer cell growth inhibition and anti-cancer effects of the compound of the present invention.
(§2) Cells (H596 or H1437 cells) were seeded in a 96-well plate at 3×10^3 cells per well and then cultured for more than 12 hours. After removing the media, each well was treated with 200 μl of the respective diluted compounds prepared in Examples 1 to 11. Three days later, the media was removed, and each well was treated with 10 μl of CCK8 reagent+90 μl of media. After 3-4 hours of reaction, the absorbance was measured using an ELISA reader at a wavelength of 450 nm.

The subject of a further experiment is H596 cells. Nature of the experiment: Cell viability assay (CCK8). Particulars: three days treatment. On the procedure:
as §1, §2

The test system of experiment [1] is c-MET (total form). Nature of the experiment: Target protein degradation assay (Western blot). Particulars: for c-MET degradation H596: H596 cells, Western blot, standard concentration and time 5 μM, 72 hours; for degradation of the target MET protein: H596 or H1437 cells, summary of Table 3. Here is the method: This experiment assessed the tendency and extent of degradation of the target protein c-MET (total form) in cells treated with each of the compounds prepared in Examples 1 to 11.
(§3) Cells (H596 or H1437 cells) were seeded in Φ60 or Φ100 culture dishes to reach 5×10^5 or 1×10^6 cells, and then cultured for more than 12 hours. After removing the media, the cells were treated with each respective compound prepared in Examples 1 to 11 at various conditions-concentrations (0, 2.5, 5, 10 μM), time (0, 6, 8, 24, 48, 72 hours), and standard concentration and time (5 μM, 72 hours) for all compounds. The cells were then harvested, lysed using RIPA buffer, and centrifuged (4° C., 13000 rpm, 15 min), to collect the supernatant in a new tube. Protein quantification was performed using the Bradford Assay, and samples were prepared for loading by boiling at 95° C. Western blotting was performed. The samples were loaded onto an SDS polyacrylamide gel (8% concentration). Electrophoresis was conducted at 80V, and then switched to 100-120V (when the loaded sample moves from the stacking gel to the running gel). After electrophoresis, the polyacrylamide gel was transferred onto the membrane (using transfer buffer diluted at 10× transfer buffer:methanol:D.W=1:2:7 ratio, cold, for 100V, 1 hour or 80V, 2 hours). The membrane was blocked with 5% skim milk for 30 minutes and washed with PBS-T (phosphate-buffered saline with Tween 20) buffer. The primary antibody was diluted in 5% BSA+NaN3 solution and reacted with the membrane for over 12 hours, followed by washing with PBS-T and reaction with 5% skim milk+secondary antibody for 1 hour and 30 minutes. After washing with PBS-T, the ECL solution was reacted with the membrane, and the bands were detected using an imaging device to confirm the degradation of the target protein c-MET.

The test system of experiment [2] is c-MET (total form). In words: Target protein degradation assay (Western blot). Particulars: H1437 cells, standard concentration and time 5 μM, 72 hours. Here is the method:
as §3, with “After removing the media, the cells were treated with each respective compound prepared in Examples 1 to 11 at various conditions-concentrations (0, 2.5, 5, 10 μM), time (0, 6, 8, 24, 48, 72 hours), and standard concentration and time (5 μM, 72 hours) for all compounds.” left out
For orientation: A western blot detects proteins with antibodies after separation by electrophoresis.

The text below walks through data of patent publication US20260207754A1, “MET PROTEIN DEGRADATION INDUCING COMPOUND” (ONCOZEN CO., LTD., priority 2022, published 2026).

As to “2,4-dihydroxy-N-({4-[(5-{4-[3-(1-{imidazole[1,2-a]pyridin-6-yl}ethyl)-[1,2,3]triazolo[4,5-b]pyrazin-5-yl]pyrazol-1-yl}-5-oxopentyl) carbamoyl]phenyl}methyl)-5-isopropyl-N-methylbenzamide [OZD-MET 05]”, the values for the IC50 in the experiment on H1437 cells and with H596 cells were 5.71 µM and 4.72 µM, respectively. Moreover, the “c-MET degradation H596” value in the experiment with c-MET (total form) [1] was 2 (10% < degradation < 50%: 2). In the experiment with c-MET (total form) [2], the “c-MET degradation H1437” value is 2 (10% < degradation < 50%: 2).
Consider `CC(C)c1cc(C(=O)N(C)Cc2cccc(C(=O)NCCOCCOC(=O)N3CCC(n4cc(-c5cnc(N)c(O[C@@H](C)c6c(Cl)ccc(F)c6Cl)c5)cn4)CC3)c2)c(O)cc1O` (stereo in doubt) [OZD-MET 01, 2-{2-[(3-{[1-(2,4-dihydroxy-5-isopropylphenyl)-N-methylformamido]methyl}phenyl)formamido]ethoxy}ethyl 4-(4-{6-amino-5-[1-(2,6-dichloro-3-fluorophenyl)ethoxy]pyridin-3-yl}pyrazol-1-yl)piperidine-1-carboxylate], for which the half-inhibitory concentration (IC50) (usually the point on the concentration scale where inhibition reaches its midpoint) amounted to 3.5 µM in the experiment with H1437 cells (Homo sapiens, NCI-H1437, 72 h) and 3.07 µM in the experiment on H596 cells (Homo sapiens, NCI-H596, 72 h). Further, in the experiment with c-MET (total form) [1], the “c-MET degradation H596” value was 1 (50% < degradation: 1). Further, the “c-MET degradation H1437” value in the experiment with c-MET (total form) [2] was 1 (50% < degradation: 1).
As for `CC(C)c1cc(C(=O)N(C)Cc2ccc(C(=O)NCCCCC(=O)N3CCC(n4cc(-c5cnc(N)c(O[C@@H](C)c6c(Cl)ccc(F)c6Cl)c5)cn4)CC3)cc2)c(O)cc1O` (stereo in doubt) [OZD-MET 03, N-{[4-({5-[4-(4-{6-amino-5-[1-(2,6-dichloro-3-fluorophenyl)ethoxy]pyridine-3-yl}pyrazol-1-yl)piperidin-1-yl]-5-oxopentyl}carbamoyl)phenyl]methyl}-2,4-dihydroxy-5-isopropyl-N-methylbenzamide], the concentration for half-maximal inhibition (IC50) with H1437 cells (Homo sapiens, NCI-H1437, 72 h) worked out at 2.64 µM; in the experiment on H596 cells (Homo sapiens, NCI-H596, 72 h), 1.97 µM. In addition, in the experiment with c-MET (total form) [1], the “c-MET degradation H596” value was 1 (50% < degradation: 1). Also, in the experiment with c-MET (total form) [2], the “c-MET degradation H1437” value is 1 (50% < degradation: 1).
`CC(C)c1cc(C(=O)N(C)Cc2cccc(C(=O)O)c2)c(O)cc1O` [Compound (d), reference compound]: in the experiment with c-MET (total form) [1], the “c-MET degradation H596” value was “No degradation” and the “degradation of the target MET protein” value is “no degradation”. Moreover, the “c-MET degradation H1437” value in the experiment on c-MET (total form) [2] was “No degradation”.
Turning to `CC(C)c1cc(C(=O)N(C)Cc2ccc(C(=O)O)cc2)c(O)cc1O` [Compound (i), reference compound], in the experiment on c-MET (total form) [1], the “c-MET degradation H596” value is recorded as “No degradation” and the “degradation of the target MET protein” value is recorded as “no degradation”. The “c-MET degradation H1437” value with c-MET (total form) [2] is listed as “No degradation”.
The compound `C[C@@H](Oc1cc(-c2cnn(C3CCNCC3)c2)cnc1N)c1c(Cl)ccc(F)c1Cl` [Crizotinib, reference compound] yielded a half-maximal inhibitory concentration (IC50) in the experiment with H1437 cells (Homo sapiens, NCI-H1437, 72 h) of 31.9 µM. Moreover, in the experiment with H596 cells (Homo sapiens, NCI-H596, 72 h), the IC50 came to 20.3 µM. Further, in the experiment on c-MET (total form) [1], the “c-MET degradation H596” value is “No degradation” and the “degradation of the target MET protein” value is “no degradation”.
As to `CC(C)c1cc(C(=O)N(C)Cc2ccc(C(=O)NCCOCCOC(=O)N3CCC(n4cc(-c5cnc(N)c(O[C@@H](C)c6c(Cl)ccc(F)c6Cl)c5)cn4)CC3)cc2)c(O)cc1O` [OZD-MET 02], the IC50 in the experiment on H1437 cells (Homo sapiens, NCI-H1437, 72 h) was determined as 4.06 µM; with H596 cells (Homo sapiens, NCI-H596, 72 h), 2.59 µM. For the same compound, in the experiment on c-MET (total form) [1], the “c-MET degradation H596” value is listed as 1 (50% < degradation: 1). Further, the “c-MET degradation H1437” value in the experiment with c-MET (total form) [2] is on record as 1 (50% < degradation: 1).
Take `CC(C)c1cc(C(=O)N(C)Cc2cccc(C(=O)NCCOCCOC(=O)n3cc(-c4cnc5nnn([C@@H](C)c6ccc7nccn7c6)c5n4)cn3)c2)c(O)cc1O` [OZD-MET 04, 2-{2-[(3-{[1-[2,4-dihydroxy-5-isopropylphenyl]-N-methylformamido]methyl}phenyl)formamido]ethoxy}ethyl 4-[3-(1-{imidazole[1,2-a]pyridin-6-yl}ethyl)-[1,2,3]triazolo[4,5-b]pyrazin-5-yl]pyrazole-1-carboxylate]: the concentration for half-maximal inhibition (IC50) turned out to be 4.65 µM in the experiment with H1437 cells (Homo sapiens, NCI-H1437, 72 h) and 4.18 µM in the experiment with H596 cells (Homo sapiens, NCI-H596, 72 h). For the same compound, the “c-MET degradation H596” value in the experiment with c-MET (total form) [1] is recorded as 2 (10% < degradation < 50%: 2). Moreover, in the experiment with c-MET (total form) [2], the “c-MET degradation H1437” value is on record as 3 (degradation < 10%: 3).
On the same counts, the results for `CC(C)c1cc(C(=O)N(C)Cc2cccc(C(=O)NCCOCCOC(=O)Nc3ccc4nccc(Oc5ccc(NC(=O)C6(C(=O)Nc7ccc(F)cc7)CC6)cc5)c4c3)c2)c(O)cc1O` [OZD-MET 06, 2-{2-[(3-{[1-(2,4-dihydroxy-5-isopropylphenyl)-N-methylformamido]methyl}phenyl)formamido]ethoxy}ethyl N-[4-(4-{1-[(4-fluorophenyl)carbamoyl]cyclopropanamido}phenoxy)quinolin-6-yl)carbamate] are 4.25 µM, 3.38 µM, 2 (10% < degradation < 50%: 2) and 2 (10% < degradation < 50%: 2).
Taken in the same sequence, the figures for `CC(C)c1cc(C(=O)N(C)Cc2ccc(C(=O)NCCCCC(=O)Nc3ccc4nccc(Oc5ccc(NC(=O)C6(C(=O)Nc7ccc(F)cc7)CC6)cc5)c4c3)cc2)c(O)cc1O` [OZD-MET 07, N′1-{4-[(6-{5-[(4-{[1-(2,4-dihydroxy-5-isopropylphenyl)-N-methylformamido]methyl}phenyl)formamido]pentanamido}quinolin-4-yl)oxy]phenyl}-N1-(4-fluorophenyl)cyclopropane-1,1-dicarboxamide] were 3.21 µM, 3.43 µM, 1 (50% < degradation: 1) and 2 (10% < degradation < 50%: 2).
For the compound `CC(C)c1cc(C(=O)N(C)Cc2cccc(C(=O)NCCOCCOC(=O)Nc3ccc(-c4cnc5ncc(Cc6ccc7ncccc7c6)n5n4)cc3F)c2)c(O)cc1O` [OZD-MET 08, 2-{2-[(3-{[1-(2,4-dihydroxy-5-isopropylphenyl)-N-methylformamido]methyl}phenyl)formamido]ethoxy}ethyl N-{2-fluoro-4-[7-(quinolin-6-ylmethyl)imidazo[1,2-b][1,2,4]triazin-2-yl]phenyl}carbamate], the concentration for half-maximal inhibition (IC50) stood at 4.34 µM in the experiment on H1437 cells (Homo sapiens, NCI-H1437, 72 h) and 3.08 µM with H596 cells (Homo sapiens, NCI-H596, 72 h). In the experiment with c-MET (total form) [1], the “c-MET degradation H596” value was 1 (50% < degradation: 1). Further, in the experiment on c-MET (total form) [2], the “c-MET degradation H1437” value is listed as 2 (10% < degradation < 50%: 2).
For `CC(C)c1cc(C(=O)N(C)Cc2ccc(C(=O)NCCCCC(=O)Nc3ccc(-c4cnc5ncc(Cc6ccc7ncccc7c6)n5n4)cc3F)cc2)c(O)cc1O` [OZD-MET 09, N-[(4-{[4-({2-fluoro-4-[7-(quinolin-6-ylmethyl)imidazo[1,2-b][1,2,4]triazin-2-yl]phenyl}carbamoyl)butyl]carbamoyl}phenyl)methyl]-2,4-dihydroxy-5-isopropyl-N-methyl-benzamide], the IC50 was determined as 3.11 µM in the experiment on H1437 cells (Homo sapiens, NCI-H1437, 72 h) and 4.18 µM in the experiment on H596 cells (Homo sapiens, NCI-H596, 72 h). In the experiment on c-MET (total form) [1], the “c-MET degradation H596” value is 2 (10% < degradation < 50%: 2). In the experiment with c-MET (total form) [2], the “c-MET degradation H1437” value is given as 1 (50% < degradation: 1).
On the same counts, the results for `CC(C)c1cc(C(=O)N(C)Cc2cccc(C(=O)NCCOCCOC(=O)N3CCC(COc4cnc(-c5cccc(Cn6nc(-c7cccc(C#N)c7)ccc6=O)c5)nc4)CC3)c2)c(O)cc1O` [OZD-MET 10, 2-{2-[(3-{[1-(2,4-dihydroxy-5-isopropylphenyl)-N-methylformamido]methyl}phenyl)formamido]ethoxy}ethyl 4-({[2-(3-{[3-(3-cyanophenyl)-6-oxopyridazin-1-yl]methyl}phenyl)pyrimidin-5-yl]oxy}methyl)piperidine-1-carboxylate] are 3.29 µM, 3.19 µM, 1 (50% < degradation: 1) and 1 (50% < degradation: 1).
